pEC50: −log10 of the molar value.
Columns and labels:
JEG-3 cells [1] = assay: [3H]-thymidine incorporation by JEG-3 cells (leptin assay in non-recombinant system); type: cell-based; conditions: FIG. 5
Description: Leptin Assay in Non-Recombinant System The leptin receptor expression in non-recombinant system is often fluctuating and care must be given to identify a system where signal stability remains within experiments. Using such a system, leptin receptor antagonist mimetics could be identified by evaluating is their action vs. leptin (see below). Leptin is produced chiefly in adipose cells, but in humans, mRNA encoding leptin is also present in the placenta. Here, leptin might play an important proliferative role in the microvasculature. The possibility to use this hypothesis in a native cell line was evaluated. JEG-3 Protocol In JEG-3 cells (choriocarcinoma cell line) leptin is able to stimulate proliferation up to 3 fold (Biol. Reprod. (2007) 76: 203-10). […] The radioactivity incorporated by the cells is an index of their proliferative activity and is measured in counts per minute (CPM) with a liquid scintillation beta counter. This finding can be applied to test whether a compound is able to either reproduce the effect of leptin on cell proliferation (leptin receptor agonist mimetic) (i.e., a given compound will cause an increase in incorporated [^3H]-Thymidine by the cells) or to inhibit the effect of leptin (antagonistic effect) by preventing the leptin-mediated increase in [^3H]-thymidine incorporation. […]

JEG-3 cells [2] = conditions: Biol. Reprod. (2007) 76: 203-10; cited from earlier work

pEC50 (JEG-3 cells [1]; JEG-3 cells (choriocarcinoma cell line), read-out: EC50, increase in [3H]-thymidine incorporation): 8.68
Substance: leptin: a hormone synthesized in fat cells that is believed to act in the hypothalamus to reduce food intake and body weight
concentration of maximal effect on [3H]-thymidine incorporation (JEG-3 cells [1]; JEG-3 cells): 100 nM
stimulation of proliferation (JEG-3 cells [2]): up to 3 fold

— patent publication US20110275678A1, “New Pyridine Derivatives as Leptin Receptor Modulator Mimetics” (priority 2008, published 2011)
